Measurements: patent publication US12624309B2, “Enol ether properfume” (Firmenich SA, priority 2020, dated 2026)

Assay: Acid-catalyzed hydrolysis of enol ethers in THF/1 M HCl, percent remaining by GC-FID
Format: physicochemical
Conditions: for percent remaining, 24 h / percent remaining, 48 h / percent remaining, 72 h / percent remaining, 168 h / percent remaining, 336 h / percent remaining, 504 h / percent remaining, 672 h / percent remaining, initial / rate of hydrolysis / hydrolytic stability compared to corresponding enol ethers prepared from alkyl alcohols: THF/1M HCl (80:20 v/v); for percent remaining, 24 h / percent remaining, 48 h / percent remaining, 72 h / percent remaining, 168 h / percent remaining, 336 h / percent remaining, 504 h / percent remaining, 672 h / percent remaining, initial: room temperature; for percent remaining, initial: time zero; for rate of hydrolysis / hydrolytic stability compared to corresponding enol ethers prepared from alkyl alcohols: in words; for enol ether remained after 504 h (21 days): Table 1, THF/1M HCl
Method: Each enol ether was dissolved in a 4:1 THF/1 M HCl mixture and the percent remaining over time measured relative to an internal standard.
After mixing, 2 mL of this solution were removed with a volumetric pipet and used to obtain the time zero measurement. 2 mL of 1 M HCl were mixed with the remaining 8 mL of the THF solution. This mixture was divided into 5 mL vials (1 mL per vial). The vials were gently topped with nitrogen and fitted with screw caps around which parafilm was wrapped. The vials were stored at room temperature until analyzed. For analyses, 2 mL of ethyl acetate was added to a vial and mixed. After phase separation, the top phase was collected and washed with saturated sodium carbonate (1 mL). Samples of the organic phase were analyzed by GC-FID. For the time zero sample, 0.5 mL of deionized water was added to the 2 mL taken from the original THF solution. 1 mL of this solution was added to a 5 mL vial and diluted with 2 mL of ethyl acetate and mixed. The top phase was collected and washed with saturated sodium carbonate (1 mL). The top phase then was analyzed by GC-FID. The percent of enol ether remaining was determined by dividing the peak area ratio of the enol ether to internal standard by the ratio measured at time zero.

For `CC/C=C\CCOC(=O)C(C)OC=C(C)c1ccc(OC)cc1` (racemic) [Compound 47, (±)-(Z)-hex-3-en-1-yl 2-((2-(4-methoxyphenyl)prop-1-en-1-yl)oxy)propanoate], the “percent remaining, 24 h” value was 96.6%, the “percent remaining, 48 h” value was 94.4% and the “percent remaining, 72 h” value was 91.2%. For the same compound, the “percent remaining, 168 h” value was 81.6%, the “percent remaining, 336 h” value was 65.0% and the “percent remaining, 504 h” value was 51.1%. The “percent remaining, 672 h” value was 40.0% and the “percent remaining, initial” value was 100%.

With `COC(=O)C(C)(C)OC=C(C)c1ccc(C)cc1` [Compound 28, (±)-methyl 2-methyl-2-((2-(p-tolyl)prop-1-en-1-yl)oxy)propanoatemethyl] the “rate of hydrolysis / hydrolytic stability compared to corresponding enol ethers prepared from alkyl alcohols” value was “Slower rates of hydrolysis”, the “percent remaining, 24 h” value was 99.3% and the “percent remaining, 48 h” value was 98.5%. For the same compound, the “percent remaining, 72 h” value was 98.5%, the “percent remaining, 168 h” value was 96.2% and the “percent remaining, 336 h” value was 92.1%. The “percent remaining, 504 h” value was 89.7%, the “percent remaining, 672 h” value was 85.8% and the “percent remaining, initial” value was 100%.

For `CC/C=C\CCOC(=O)C(C)OC=Cc1ccc(OC)cc1` (racemic) [Compound 42, (±)-(Z)-hex-3-en-1-yl 2-((4-methoxystyryl)oxy)propanoate], the “percent remaining, 24 h” value was 95.1%, the “percent remaining, 48 h” value was 93.9% and the “percent remaining, 72 h” value was 89.8%. For the same compound, the “percent remaining, 168 h” value was 78.1%, the “percent remaining, 336 h” value was 60.1% and the “percent remaining, 504 h” value was 46.8%. For the same compound, the “percent remaining, 672 h” value was 35.2%, the “percent remaining, initial” value was 100% and the “enol ether remained after 504 h (21 days)” value (“enol ether remained” below) was 46.8%.

For `COC(=O)C(C)(C)OC=C(C)c1ccccc1` [Compound 25, methyl 2-methyl-2-((2 phenylprop-1-en-1-yl)oxy)propanoate], the “rate of hydrolysis / hydrolytic stability compared to corresponding enol ethers prepared from alkyl alcohols” value was “improved hydrolytic stability”, the “percent remaining, 72 h” value was 100% and the “percent remaining, 168 h” value was 98.1%. The “percent remaining, 336 h” value was 93.6%, the “percent remaining, 504 h” value was 90.0% and the “percent remaining, 672 h” value was 89.6%. For the same compound, the “percent remaining, initial” value was 100%.

For `CC(OC=Cc1ccccc1)C(=O)OCCc1ccccc1` (racemic) [Compound 40, (±)-phenethyl 2-(styryloxy)propanoate], the “percent remaining, 24 h” value was 97.3%, the “percent remaining, 48 h” value was 95.0% and the “percent remaining, 72 h” value was 91.8%. For the same compound, the “percent remaining, 168 h” value was 78.5%, the “percent remaining, 336 h” value was 59.0% and the “percent remaining, 504 h” value was 53.0%. The “percent remaining, 672 h” value was 41.4% and the “percent remaining, initial” value was 100%.

For `CCCCCC(CC)OC(=O)C(C)OC=C(C)c1ccccc1` (racemic) [Compound 44, (±)-octan-3-yl 2-((2-phenylprop-1-en-1-yl)oxy)propanoate], the “rate of hydrolysis / hydrolytic stability compared to corresponding enol ethers prepared from alkyl alcohols” value was “improved hydrolytic stability”, the “percent remaining, 24 h” value was 99.3% and the “percent remaining, 48 h” value was 99.5%. For the same compound, the “percent remaining, 72 h” value was 98.9%, the “percent remaining, 168 h” value was 96.5% and the “percent remaining, 336 h” value was 93.3%. For the same compound, the “percent remaining, 504 h” value was 90.4%, the “percent remaining, 672 h” value was 88.6% and the “percent remaining, initial” value was 100%.

In the case of `COC(=O)C(C)(C)OC=Cc1ccccc1` [Compound 10, methyl 2-methyl-2-(styryloxy)propanoate], the “percent remaining, 24 h” value is reported as 97.2%, the “percent remaining, 48 h” value is reported as 95.3% and the “percent remaining, 72 h” value is reported as 93.7%. For the same compound, the “percent remaining, 168 h” value was 86.0%, the “percent remaining, 336 h” value was 77% and the “percent remaining, 504 h” value was 70.8%. The “percent remaining, 672 h” value was 64.1% and the “percent remaining, initial” value was 100%.

In the case of `CC/C=C\CCOC(=O)C(C)OC=Cc1ccccc1` (racemic) [Compound 39, (±)-(Z)-hex-3-en-1-yl 2-(styryloxy)propanoate], the “percent remaining, 24 h” value is reported as 96.3%, the “percent remaining, 48 h” value is reported as 95.3% and the “percent remaining, 72 h” value is reported as 90.7%. The “percent remaining, 168 h” value was 79.6%, the “percent remaining, 336 h” value was 67.3% and the “percent remaining, 504 h” value was 53.0%. For the same compound, the “percent remaining, 672 h” value was 41.2% and the “percent remaining, initial” value was 100%.

With `CC(=COCCc1ccccc1)c1ccc(C)cc1` [1-methyl-4-(1-phenethoxyprop-1-en-2-yl)benzene, reference compound] the “percent remaining, 24 h” value was 97.8%, the “percent remaining, 48 h” value was 95.5% and the “percent remaining, 72 h” value was 93.9%. The “percent remaining, 168 h” value was 85.0%, the “percent remaining, 336 h” value was 70.4% and the “percent remaining, 504 h” value was 57.3%. The “percent remaining, 672 h” value was 42.5% and the “percent remaining, initial” value was 100%.

For `CCCCCC(CC)OC=Cc1ccccc1` (centres unmarked) [(2-(octan-3-yloxy)vinyl)benzene, reference compound], the “percent remaining, 24 h” value was 84.9%, the “percent remaining, 48 h” value was 72.0% and the “percent remaining, 72 h” value was 61.7%. The “percent remaining, 168 h” value was 33.6%, the “percent remaining, 336 h” value was 10% and the “percent remaining, 504 h” value was 4.5%. The “percent remaining, 672 h” value was 0%, the “percent remaining, initial” value was 100% and the “enol ether remained” value was 4.5%.

For `CCCCCC(CC)OC=C(C)c1ccccc1` (centres unmarked) [(1-(octan-3-yloxy)prop-1-en-2-yl)benzene, reference compound], the “percent remaining, 24 h” value was 96.2%, the “percent remaining, 48 h” value was 92.4% and the “percent remaining, 72 h” value was 89.3%. For the same compound, the “percent remaining, 168 h” value was 76.6%, the “percent remaining, 336 h” value was 57.3% and the “percent remaining, 504 h” value was 44.5%. The “percent remaining, 672 h” value was 33.6% and the “percent remaining, initial” value was 100%.

With `CC/C=C\CCOC=Cc1ccc(OC)cc1` [Compound 51, 1-(2-(((Z)-hex-3-en-1-yl)oxy)vinyl)-4-methoxybenzene, reference compound] the “percent remaining, 24 h” value was 89.1%, the “percent remaining, 48 h” value was 80.2% and the “percent remaining, 72 h” value was 72.4%. For the same compound, the “percent remaining, 168 h” value was 52.5%, the “percent remaining, 336 h” value was 29.1% and the “percent remaining, 504 h” value was 14.6%. The “percent remaining, 672 h” value was 10.1%, the “percent remaining, initial” value was 100% and the “enol ether remained” value was 14.6%.

In the case of `CCC(C)OC(=O)C(C)OC=C(C)c1ccc(OC)cc1` (racemic) [Compound 49, (±)-sec-butyl 2-((2-(4-methoxyphenyl)prop-1-en-1-yl)oxy)propanoate], the “percent remaining, 24 h” value is reported as 96.8%, the “percent remaining, 48 h” value is reported as 94.8% and the “percent remaining, 72 h” value is reported as 93.8%. For the same compound, the “percent remaining, 168 h” value was 87.6%, the “percent remaining, 336 h” value was 76.9% and the “percent remaining, 504 h” value was 67.6%. For the same compound, the “percent remaining, 672 h” value was 56.2% and the “percent remaining, initial” value was 100%.

For `CC(=COCCc1ccccc1)c1ccccc1` [(1-phenethoxyprop-1-en-2-yl)benzene, reference compound], the “percent remaining, 24 h” value was 98.4%, the “percent remaining, 48 h” value was 96.5% and the “percent remaining, 72 h” value was 93.8%. For the same compound, the “percent remaining, 168 h” value was 86.1%, the “percent remaining, 336 h” value was 72.7% and the “percent remaining, 504 h” value was 59.0%. The “percent remaining, 672 h” value was 43.7% and the “percent remaining, initial” value was 100%.

In the case of `CCCCCC(CC)OC(=O)C(C)OC=Cc1ccccc1` (racemic) [Compound 41, (±)-octan-3-yl 2-(styryloxy)propanoate], the “percent remaining, 24 h” value is reported as 99.7%, the “percent remaining, 48 h” value is reported as 99.2% and the “percent remaining, 72 h” value is reported as 98.1%. The “percent remaining, 168 h” value was 94.1%, the “percent remaining, 336 h” value was 91.7% and the “percent remaining, 504 h” value was 88.4%. The “percent remaining, 672 h” value was 84.4% and the “percent remaining, initial” value was 100%.

For `CCC(C)OC(=O)C(C)OC=C(C)c1ccc(C)cc1` (racemic) [Compound 46, (±)-sec-butyl 2-((2-(p-tolyl)prop-1-en-1-yl)oxy)propanoate], the “rate of hydrolysis / hydrolytic stability compared to corresponding enol ethers prepared from alkyl alcohols” value was “Slower rates of hydrolysis”, the “percent remaining, 24 h” value was 98.0% and the “percent remaining, 48 h” value was 97.0%. The “percent remaining, 72 h” value was 95.8%, the “percent remaining, 168 h” value was 90.9% and the “percent remaining, 336 h” value was 82.4%. For the same compound, the “percent remaining, 504 h” value was 74.5%, the “percent remaining, 672 h” value was 66.6% and the “percent remaining, initial” value was 100%.

For `CC(=COC(C)(C)CCCC(C)C)c1ccccc1` [(1-(2,6-dimethylheptan-2-yloxy)prop-1-en-2-yl)benzene, reference compound], the “percent remaining, 24 h” value was 92.9%, the “percent remaining, 48 h” value was 85.7% and the “percent remaining, 72 h” value was 80.5%. The “percent remaining, 168 h” value was 60.3%, the “percent remaining, 336 h” value was 41.7% and the “percent remaining, 504 h” value was 28.1%. The “percent remaining, 672 h” value was 17.9% and the “percent remaining, initial” value was 100%.

For `COC(=O)C(C)(C)OC=C(C)c1ccc(OC)cc1` [Compound 27, methyl 2-((2-(4-methoxyphenyl)prop-1-en-1-yl)oxy)-2-methylpropanoate], the “percent remaining, 24 h” value was 102%, the “percent remaining, 48 h” value was 101% and the “percent remaining, 72 h” value was 99.7%. The “percent remaining, 168 h” value was 97.8%, the “percent remaining, 336 h” value was 87.7% and the “percent remaining, 504 h” value was 89.1%. For the same compound, the “percent remaining, 672 h” value was 84.7% and the “percent remaining, initial” value was 100%.

With `C(=Cc1ccccc1)OCCc1ccccc1` [(2-phenethoxyvinyl)benzene, reference compound] the “percent remaining, 24 h” value was 94.6%, the “percent remaining, 48 h” value was 90.0% and the “percent remaining, 72 h” value was 83.7%. The “percent remaining, 168 h” value was 66.4%, the “percent remaining, 336 h” value was 45.2% and the “percent remaining, 504 h” value was 35.9%. The “percent remaining, 672 h” value was 25.0%, the “percent remaining, initial” value was 100% and the “enol ether remained” value was 39.5%.
